# Test results reported in article PMC12305662, “Fragment-Based Development of Small Molecule Inhibitors Targeting Mycobacterium tuberculosis Cholesterol Metabolism” (Journal of Medicinal Chemistry, 2025).
# Several values for one entry are separate records, joined by “and”; a condition that tells them apart may be missing. Equal values may be shown once. Read-outs that look alike come from different tables or passages of the source.
# Columns and labels:
# Mtb H37Rv [1] = assay: Extracellular Mtb growth on cholesterol, MABA MIC99; format: cell-based, Mycobacterium tuberculosis; settings: Mycobacterium tuberculosis, H37RV
# CYP125 [2] = target: T1, CYP125 (Mycobacterium tuberculosis, UniProt P9WPP1); assay: LC-MS substrate turnover assay (cholest-4-en-3-one); format: biochemical
# [3] = system: uninfected THP-1 macrophages; assay: THP-1 cytotoxicity (ATPLite); settings: concentrations up to 50 μM
# [4] = system: Mtb/iniB reporter (cell wall damage response); format: cell-based, Mycobacterium tuberculosis; settings: 50–0.05 μM, days 1, 2, 4, 7
# CYP1A = target: T2, CYP1A (Homo sapiens, UniProt P05177); assay: Inhibition of human liver microsomal P450s; format: in vitro ADME
# T2 construct: from tissue; host or cells: human liver microsomes
# T2 sequence (P05177 2-516 limits assumed): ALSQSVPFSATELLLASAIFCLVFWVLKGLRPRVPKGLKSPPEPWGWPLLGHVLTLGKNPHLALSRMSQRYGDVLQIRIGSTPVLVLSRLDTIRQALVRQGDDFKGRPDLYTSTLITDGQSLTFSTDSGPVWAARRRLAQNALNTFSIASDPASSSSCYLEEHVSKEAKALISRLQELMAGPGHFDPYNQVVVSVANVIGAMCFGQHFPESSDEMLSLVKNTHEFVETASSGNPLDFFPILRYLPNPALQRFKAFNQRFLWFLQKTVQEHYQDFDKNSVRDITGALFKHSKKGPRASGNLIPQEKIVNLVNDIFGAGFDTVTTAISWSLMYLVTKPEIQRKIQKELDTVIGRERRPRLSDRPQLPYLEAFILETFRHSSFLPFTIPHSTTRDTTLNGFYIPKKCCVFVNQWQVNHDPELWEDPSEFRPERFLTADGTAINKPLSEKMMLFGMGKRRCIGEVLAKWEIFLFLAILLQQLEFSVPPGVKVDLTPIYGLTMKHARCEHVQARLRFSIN
# Source text: (§1) Table S8. Inhibition of human liver microsomal P450s. Inhibition constants (IC 50 values, µM) of
# (§2) following substrates: CYP1A-ethoxyresorufin, CYP2C19- mephenytoin, CYP2C9-tolbutamide, CYP2D6-
# (§3) dextromethorphan, CYP3A4-midazolam/testosterone.
# CYP2C19 = target: T3, CYP2C19 (Homo sapiens, UniProt P33261); assay: Inhibition of human liver microsomal P450s; format: in vitro ADME
# T3 construct: from tissue; host or cells: human liver microsomes
# Source text: as §1, §2, §3
# CYP2D6 = target: T4, CYP2D6 (Homo sapiens, UniProt P10635); assay: Inhibition of human liver microsomal P450s; format: in vitro ADME
# T4 construct: from tissue; host or cells: human liver microsomes
# Source text: as §1, §2, §3
# CYP2C9 = target: T5, CYP2C9 (Homo sapiens, UniProt P11712); assay: Inhibition of human liver microsomal P450s; format: in vitro ADME
# T5 construct: from tissue; host or cells: human liver microsomes
# Source text: as §1, §2, §3
# CYP3A4 = target: T6, CYP3A4 (Homo sapiens, UniProt P08684); assay: Inhibition of human liver microsomal P450s; format: in vitro ADME
# T6 construct: from tissue; host or cells: human liver microsomes
# Source text: as §1, §2, §3
# Mtb CDC1551 [5] = assay: Depletion of intracellular ATP, Mtb on glucose; settings: read-out: ATP IC50 (W1) CDC1551, glucose media; glucose as sole carbon source; 1 week
# Description: (Mtb) H37Rv or CDC1551 strains were grown in Middlebrook 7H9 broth medium (Difco) supplemented with 0.3 g/L casitone, 0.81 g/L NaCl, 0.05% (v/v) tyloxapol, and either 97 mg/L cholesterol, 4 g/L glucose, or 0.2% glycerol. For inhibitor assays, a 10-fold serial dilution of the test compounds was made in the desired medium in duplicate rows of a 96-well plate. Mtb cells were then added to all the wells at the final concentration of 1 × 10^4 CFU, and plates were incubated at 37 °C for up to 15 days. Minimum inhibitory concentrations (MIC99) were determined using the Microplate Alamar Blue Assay (MABA) on day 15.
# BacTiter Glo reagent (Promega) was added to microtiter plates (1:10 dilution) and luminescence was recorded after 15 min of incubation at room temperature. […] Isoniazid or p-amino salicylic acid were used as positive control compounds for all experiments. Reported MIC and IC50 values are the mean of duplicate treatments.
# Mtb CDC1551 [6] = assay: Depletion of intracellular ATP (BacTiter Glo), Mtb on cholesterol; format: cell-based; settings: Mycobacterium tuberculosis, cholesterol as sole carbon source
# [7] = system: MDR-TB strain K26b00MR 113; assay: microbe, parasite or virus in culture; format: cell-based, Mycobacterium tuberculosis; settings: Mycobacterium tuberculosis, K26b00MR 113
# CYP142 = CYP142 (Mycobacterium tuberculosis, UniProt P9WPL5)
# Mtb (Erdman) = assay: Extracellular Mtb (Erdman) growth on cholesterol-supplemented (0.01%) media, MABA; format: cell-based, Mycobacterium tuberculosis; settings: Mycobacterium tuberculosis, ERDMAN, 168 h, MABA 1 week post-compound treatment, mean ± SD n = 3, read-out: mixed media IC50 (Erdman)
# [8] = system: Mtb H37Rv pATB45luc in THP-1 macrophages; assay: microbe, parasite or virus in culture; format: cell-based; settings: Mycobacterium tuberculosis, 120 h, 5 days post-compound treatment, mean ± SD n = 2, read-out: intracellular growth Mtb IC50
# CYP125 [9] = target: T1, CYP125; assay: biochemical; format: binding
# Mtb CDC1551 [10] = assay: Extracellular Mtb growth on cholesterol, MABA MIC99; format: cell-based, Mycobacterium tuberculosis; settings: Mycobacterium tuberculosis, CDC1551, 336 h; cholesterol as sole carbon source; 2 weeks post-compound treatment; read-out: MABA-MIC99 (W2) CDC1551, cholesterol
# Mtb H37Rv [11] = assay: Depletion of intracellular ATP (BacTiter Glo), Mtb on cholesterol; format: cell-based, Mycobacterium tuberculosis; settings: 2 weeks post-compound treatment
# [12] = system: Mtb/recA reporter (DNA damage response); format: cell-based, Mycobacterium tuberculosis; settings: 50–0.05 μM, days 1, 2, 4, 7
# [13] = system: several human P450 isoforms (panel: CYP1A, CYP2C19, CYP2C9, CYP2D6, CYP3A4); assay: in vitro; format: in vitro ADME
# Description: As several P450 isoforms were inhibited as concentrations <5 μM, the compound has potential to cause drug–drug interactions and further optimization of the benzylpyridine scaffold to improve CYP125/142 selectivity would be required for in vivo applications.
# as §1, §2, §3
# [14] = proportion of binding affinity attributed to the 1a-ii hotspot
# T1 sequence (P9WPP1 whole entry): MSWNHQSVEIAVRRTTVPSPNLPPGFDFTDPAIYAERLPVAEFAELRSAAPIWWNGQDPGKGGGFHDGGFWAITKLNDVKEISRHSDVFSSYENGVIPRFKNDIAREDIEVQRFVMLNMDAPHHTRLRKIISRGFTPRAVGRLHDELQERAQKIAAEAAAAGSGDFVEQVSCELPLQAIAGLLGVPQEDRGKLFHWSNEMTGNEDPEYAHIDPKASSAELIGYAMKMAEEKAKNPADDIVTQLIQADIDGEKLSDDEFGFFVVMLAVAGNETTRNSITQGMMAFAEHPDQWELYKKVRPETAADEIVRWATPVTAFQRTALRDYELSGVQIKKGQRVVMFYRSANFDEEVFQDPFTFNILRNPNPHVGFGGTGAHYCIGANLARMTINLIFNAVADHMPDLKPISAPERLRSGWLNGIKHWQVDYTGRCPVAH
# T6 sequence (P08684 whole entry): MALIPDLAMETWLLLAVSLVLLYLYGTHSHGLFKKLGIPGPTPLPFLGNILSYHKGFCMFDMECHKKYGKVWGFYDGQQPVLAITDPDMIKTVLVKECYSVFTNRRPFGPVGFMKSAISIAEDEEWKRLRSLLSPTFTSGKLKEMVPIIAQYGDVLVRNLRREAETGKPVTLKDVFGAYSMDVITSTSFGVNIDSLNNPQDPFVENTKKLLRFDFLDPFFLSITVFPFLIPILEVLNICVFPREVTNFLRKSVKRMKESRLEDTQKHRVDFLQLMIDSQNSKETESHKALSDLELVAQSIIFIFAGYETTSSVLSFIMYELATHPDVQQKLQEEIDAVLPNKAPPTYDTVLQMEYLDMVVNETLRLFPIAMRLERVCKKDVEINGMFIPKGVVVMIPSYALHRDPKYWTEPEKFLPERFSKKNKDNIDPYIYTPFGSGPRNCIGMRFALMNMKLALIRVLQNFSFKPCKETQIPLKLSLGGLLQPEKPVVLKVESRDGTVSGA
# CYP142, sequence (P9WPL5 whole entry): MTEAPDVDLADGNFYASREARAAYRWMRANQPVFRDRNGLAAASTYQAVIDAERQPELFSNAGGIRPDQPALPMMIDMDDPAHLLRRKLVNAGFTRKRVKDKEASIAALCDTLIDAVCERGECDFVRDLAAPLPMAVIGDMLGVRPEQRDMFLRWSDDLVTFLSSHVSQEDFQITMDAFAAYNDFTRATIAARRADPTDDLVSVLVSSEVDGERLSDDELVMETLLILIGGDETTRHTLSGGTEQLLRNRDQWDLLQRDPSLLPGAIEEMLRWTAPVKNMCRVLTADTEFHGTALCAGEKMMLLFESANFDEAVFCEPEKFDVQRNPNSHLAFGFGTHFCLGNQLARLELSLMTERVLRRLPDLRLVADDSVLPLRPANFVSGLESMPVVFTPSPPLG
# T3 sequence (P33261 whole entry): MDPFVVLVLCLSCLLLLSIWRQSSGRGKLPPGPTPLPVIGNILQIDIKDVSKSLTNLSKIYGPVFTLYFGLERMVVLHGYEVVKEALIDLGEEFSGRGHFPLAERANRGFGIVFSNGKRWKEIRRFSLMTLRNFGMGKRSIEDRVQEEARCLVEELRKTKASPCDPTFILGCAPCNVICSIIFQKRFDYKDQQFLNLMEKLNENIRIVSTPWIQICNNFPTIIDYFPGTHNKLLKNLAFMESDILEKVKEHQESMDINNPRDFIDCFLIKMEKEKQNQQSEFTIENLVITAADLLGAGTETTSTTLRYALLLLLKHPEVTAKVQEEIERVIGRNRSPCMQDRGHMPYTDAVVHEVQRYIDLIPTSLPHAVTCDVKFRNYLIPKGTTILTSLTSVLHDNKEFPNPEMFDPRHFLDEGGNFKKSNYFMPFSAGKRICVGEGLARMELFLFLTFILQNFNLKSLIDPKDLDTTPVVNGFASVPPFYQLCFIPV
# T5 sequence (P11712 whole entry): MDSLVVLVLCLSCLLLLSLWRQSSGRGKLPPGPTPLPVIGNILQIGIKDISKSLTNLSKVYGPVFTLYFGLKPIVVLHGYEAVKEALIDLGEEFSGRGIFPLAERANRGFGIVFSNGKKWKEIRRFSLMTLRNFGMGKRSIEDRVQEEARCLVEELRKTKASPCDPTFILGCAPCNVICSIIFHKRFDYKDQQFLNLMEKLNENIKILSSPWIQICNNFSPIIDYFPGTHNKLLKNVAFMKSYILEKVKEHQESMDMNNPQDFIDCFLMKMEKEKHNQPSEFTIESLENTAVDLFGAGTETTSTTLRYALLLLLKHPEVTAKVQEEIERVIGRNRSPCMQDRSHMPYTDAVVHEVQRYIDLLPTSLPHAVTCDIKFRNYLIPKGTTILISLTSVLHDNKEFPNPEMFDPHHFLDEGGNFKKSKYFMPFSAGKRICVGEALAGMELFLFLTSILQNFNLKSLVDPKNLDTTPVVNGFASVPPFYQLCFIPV
# T4 sequence (P10635 whole entry): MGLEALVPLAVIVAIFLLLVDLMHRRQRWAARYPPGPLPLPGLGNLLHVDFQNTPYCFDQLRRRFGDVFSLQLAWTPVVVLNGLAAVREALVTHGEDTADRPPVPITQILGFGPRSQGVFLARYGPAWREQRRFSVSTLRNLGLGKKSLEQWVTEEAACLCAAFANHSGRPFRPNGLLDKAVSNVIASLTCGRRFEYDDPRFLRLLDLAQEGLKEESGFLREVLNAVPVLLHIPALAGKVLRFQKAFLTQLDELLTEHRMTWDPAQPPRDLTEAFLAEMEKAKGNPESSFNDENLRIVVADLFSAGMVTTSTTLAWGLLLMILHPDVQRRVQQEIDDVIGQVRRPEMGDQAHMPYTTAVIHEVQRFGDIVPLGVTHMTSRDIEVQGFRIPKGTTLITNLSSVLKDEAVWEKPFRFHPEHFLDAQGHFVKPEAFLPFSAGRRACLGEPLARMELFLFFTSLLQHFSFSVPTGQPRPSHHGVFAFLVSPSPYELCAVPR
smiles,measurement,setting,value
"COc1ccc(CNc2ccc(Cc3ccncc3)cc2)cc1 [5m, N-(4-Methoxybenzyl)-4-(pyridin-4-ylmethyl)aniline]",MIC99,"Mtb H37Rv [1]; 336 h, cholesterol as sole carbon source, 2 weeks post-compound treatment, read-out: MABA-MIC99 (W2) H37Rv, cholesterol",1.5 µM
same,MIC99,"Mtb H37Rv [1]; 336 h, cholesterol as sole carbon source, 2 weeks, conversion of 1.5 μM, read-out: MIC99 H37Rv, cholesterol",~0.46 µg/mL
same,MIC99,"Mtb H37Rv [1]; read-out: MIC99, growth of Mtb in extracellular assays",0.4 to 1.5 µM
same,IC50,"CYP125 [2]; CYP125 0.5 μM, cholest-4-en-3-one 5 µM, LC-MS, read-out: CYP125A1 IC50",350 ± 40 nM
same,Ki,"CYP125 [2]; estimated by Cheng-Prusoff, cholest-4-en-3-one Km CYP125 = 2.1 µM, read-out: CYP125A1 KI",< 1000 nM and 100 nM
same,Ki,"CYP125 [2]; one bound given for both enzymes, read-out: KI, enzyme activity in vitro (CYP125/142)",< 100 nM
same,Ki,"CYP125 [2]; one range given for both enzymes, read-out: KI, catalytic activity in vitro (CYP125/142)",50 to 100 nM
same,THP-1 cytotoxicity in words,[3],no effect on THP-1 cell viability
same,upregulation of iniB reporter,[4],did not induce the upregulation
same,IC50,CYP1A,820 nM
same,IC50,CYP2C19,440 nM
same,IC50,CYP2D6,330 nM
same,IC50,CYP2C9,1860 nM
same,IC50,"CYP3A4; CYP3A4 IC50 (midazolam), substrate midazolam (first value of cell)",520 nM
same,IC50,"CYP3A4; CYP3A4 IC50 (testosterone), substrate testosterone (second value of cell)",1820 nM
same,IC50,Mtb CDC1551 [5],4700 nM
same,IC50,"Mtb CDC1551 [6]; CDC1551, 168 h, 1 week post-compound treatment, read-out: ATP-IC50 (W1) CDC1551, cholesterol",590 nM
same,IC50,"Mtb CDC1551 [6]; CDC1551, 336 h, 2 weeks post-compound treatment, read-out: ATP-IC50 (W2) CDC1551, cholesterol",9400 nM
same,MIC90,"[7]; 168 h, read-out: MIC90 (W1) MDR-TB, MABA 1 week post-compound treatment",0.39 µM
same,MIC90,"[7]; 336 h, read-out: MIC90 (W2) MDR-TB, MABA 2 weeks post-compound treatment",12.5 µM
same,Kd,CYP142,80 nM
same,"ΔΔG [5m-1a], CYP142",CYP142; [14],0.2
same,IC50,Mtb (Erdman),2900 ± 190 nM
same,IC50,[8],1700 ± 180 nM
same,"improvement in binding affinity KD 1a/5m, CYP125",CYP125 [9],> 1000 fold
same,ligand efficiency (LE),CYP125 [9],> 0.4
same,group efficiency (GE) of the benzylamine,CYP125 [9]; CYP125 and CYP142,0.20–0.50
same,Kd,"CYP125 [9]; KD, dual CYP125/142 ligand",0.04 to 0.16 µM and ~0.1 µM
same,"ΔΔG [5m-1a], CYP125",CYP125 [9]; [14],0.5
same,Kd,CYP125 [9]; read-out: KD (μM) CYP125,0.04 ± 0.021 µM
same,MIC99,Mtb CDC1551 [10],13 µM
same,IC50,"Mtb H37Rv [11]; Mycobacterium tuberculosis, H37RV, 336 h, H37Rv, bovine serum albumin, read-out: ATP IC50 (W2), cholesterol media with BSA",2300 nM
same,IC50,"Mtb H37Rv [11]; Mycobacterium tuberculosis, H37RV, 336 h, H37Rv, casitone, read-out: ATP IC50 (W2), cholesterol media with casitone",1500 nM
same,IC50,"Mtb H37Rv [11]; Mycobacterium tuberculosis, H37RV, 336 h, cholesterol as sole carbon source, read-out: ATP-IC50 (W2) H37Rv, cholesterol",1200 nM
same,IC50,"Mtb H37Rv [11]; cholesterol as sole carbon source, read-out: ATP-IC50 (W2) H37Rv, cholesterol",1100 nM
same,upregulation of recA reporter,[12],did not induce the upregulation
same,IC50,[13],< 5000 nM
